According to patent publication US20240024494A1, “SMALL-MOLECULE CONJUGATE AND USE THEREOF” (SHANGHAI MEWSGEN BIOTECHNOLOGY CO., LTD, priority 2020, published 2024):
Where two headings read alike, the source gives them in different places.

Assays:
[1] = tested on: human esophageal cancer KYSE-150; experiment: In-vivo antitumor activity test in human esophageal cancer KYSE-150 (subcutaneous tumor block in nude mice); design: species or system BALB/C nude mice; conditions: KYSE-150; 10 mg/kg, Ipx5 each week for 2 continuous weeks; d22
Protocol: (§1) Animals: BALB/C nude mice (SPF grade), male, and 18-20 g. The compounds were firstly added with DMSO at a total amount of 4%, then added with Tween-80 at a total amount of 2% for assisting dissolution, then added with PEG300 at a total amount of 5%, and finally added with sterilized normal saline to be prepared into a solution at 1 mg/mL. Idasanutlin was firstly added with DMSO at a total amount of 4%, then added with Tween-80 at a total amount of 2% for assisting dissolution, then added with PEG300 at a total amount of 5%, and finally added with sterilized normal saline to be prepared into a solution at 2.5 mg/mL.
A well-grown human esophageal cancer KYSE-150 tumor mass was taken and aseptically cut into uniform small blocks of about 3 mm in size, and a right axilla of each mouse was subcutaneously inoculated with one block through a trocar. […] The animals were regrouped according to a tumor size. The animals with too large and too small tumors were sifted out. An average tumor volume in each group was approximately the same. An administration was started according to the following solution with an administration volume of 0.2 mL/20 g body weight. A long diameter a (mm) of the tumor and a short diameter b (mm) vertical to the tumor were measured by a digital display electronic caliper 2 times a week from day 9 of the inoculation. A tumor volume was calculated by the formula: TV=ab^2/2, and a relative tumor volume was calculated by the formula: RTV=Vt/Vo, wherein Vo was the obtained tumor volume measured at a cage separation (i.e. d1) and Vt was the tumor volume measured at each time. The animals were sacrificed 30 days after the inoculation (d22) and weighed, tumor mass was obtained by dissection and weighed, and the results were determined according to the following formula: […]

[2] = In-vivo antitumor activity test in human stromal tumor SHG44 (subcutaneous tumor block in nude mice); design: species or system BALB/C nude mice; conditions: SHG44; 10 mg/kg, Ipx5 each week for 2 continuous weeks; d22; in g (unit assumed)
Protocol: as §1
(§2) A well-grown human stromal tumor SHG44 mass was taken and aseptically cut into uniform small blocks of about 3 mm in size, and a right axilla of each mouse was subcutaneously inoculated with one block through a trocar. […] The animals were regrouped according to a tumor size. The animals with too large and too small tumors were sifted out. An average tumor volume in each group was approximately the same. An administration was started according to the following solution with an administration volume of 0.2 mL/20 g body weight. A long diameter a (mm) of the tumor and a short diameter b (mm) vertical to the tumor were measured by a digital display electronic caliper 2 times a week from day 9 of the inoculation. A tumor volume was calculated by the formula: TV=ab^2/2, and a relative tumor volume was calculated by the formula: RTV=Vt/Vo, wherein Vo was the obtained tumor volume measured at a cage separation (i.e. d1) and Vt was the tumor volume measured at each time. The animals were sacrificed 30 days after the inoculation (d22) and weighed, tumor mass was obtained by dissection and weighed, and the results were determined according to the following formula: […]

[3] = tested on: human gastric carcinoma MGC803; experiment: In-vivo antitumor activity test in human gastric carcinoma MGC803 (subcutaneous tumor block in nude mice); design: species or system BALB/C nude mice; conditions: MGC803; 10 mg/kg, Ipx5 each week for 2 continuous weeks; d22
Protocol: as §1
as §2, with “gastric carcinoma MGC803” for “stromal”, “tumor” for “tumor SHG44”

[4] = tested on: MGC803 (human gastric carcinoma cells); type: cell-based; conditions: 72 h
From the text: (§3) A part of the compounds of the examples of the present disclosure were subjected to a tumor cell proliferation inhibition test by using an MTT method (e.g. Pharmacological Research Method of New Drug, 2007: 242-243, edited by Lu Qiujun).
(§4) A cell strain was selected from KYSE-150 (human esophageal squamous carcinoma cells), MGC803 (human gastric carcinoma cells), and SHG44 (human glioma cells), and frozen and passaged by a pharmacological laboratory of Shanghai Institute of Pharmaceutical Industry. A culture solution was DMEM+10% FBS+double antibody.
(§5) In-vitro activity test: 100 μL of a cell suspension at a concentration of 4-5×10^4/mL was added to each well of a 96-well plate, and placed in a 5% CO2 incubator at 37° C. After 24 h, a sample solution was added at 10 μL/well, double duplicate wells were set, and a reaction was performed at 37° C. with 5% CO2 for 72 h. 20 μL of 5 mg/ml of an MTT solution was added into each well and reacted for 4 h, a dissolving solution was added at 100 μL/well, the mixture was placed in an incubator, and after dissolution, an OD value at 570 nm was measured with a full-wavelength multifunctional microplate reader. An inhibition rate (IR) and a median inhibitory concentration (IC50) were calculated by using an Excel software.
(§6) The inhibition rate (IR %) of the drug on cell growth was calculated according to the following equation: […]

[5] = tested on: KYSE-150 (human esophageal squamous carcinoma cells); type: cell-based; conditions: 72 h
From the text: as §3, §4, §5, §6

[6] = tested on: SHG44 (human glioma cells); type: cell-based; conditions: 72 h
From the text: as §3, §4, §5, §6

[7] = tested on: SW1990 (human pancreatic carcinoma cells); experiment: Tumor cell proliferation inhibition test, CCK-8 method (Example 19); type: cell-based
Protocol: (§7) A part of the compounds prepared in the examples of the present disclosure were subjected to a tumor cell proliferation inhibition test by using a CCK-8 method. A cell line HCT116 (human colon carcinoma cells) and SW1990 (human pancreatic carcinoma cells) were purchased from Shanghai Meixuan Technology Co., Ltd. Samples (a part of the compounds prepared in the examples) were dissolved in DMSO (Merck), prepared into a concentration of 10 mM, and finally triply diluted in DMEM or McCoy's 5A 1640 medium to 8 concentration gradients. A cell culture solution was collected when a cell culture met a test requirement, 10 μL of the cell culture solution was uniformly coated on a cell counting plate, cells were counted for 3 times under a microscope, and a cell density was calculated by taking an average value; and a 96-well plate (Corning, #3599) was taken, 200 μL of the cell culture solution was added into each well for cell inoculation at a cell concentration of 6×10^3 cells per well, and the inoculated 96-well plate was incubated in a cell incubator containing 5% CO2 at 37° C. for 24 h. An old culture medium was removed by suction, 200 μL of the triply diluted sample DMEM or McCoy's 5A 1640 medium at an initial concentration of 10 μmol/L was added to each well, the DMSO content was controlled to be 1%, three duplicate wells were set, PBS was used as a blank control, and the plate was incubated in the incubator for 72 h. The original DMEM or McCoy's 5A 1640 medium in the 96-well plate and a PBS buffer in a final row were sucked out, a prepared CCK-8 solution (90% DMEM or McCoy's 5A 1640 medium+10% CCK-8) was added, the mixture was incubated in an incubator, and an absorbance was read by using a Biotek microplate reader. Cell growth inhibition rate IC %=(blank control well OD value−administration well OD value)/blank control well OD value×100%.

[8] = tested on: HCT116 (human colon carcinoma cells); experiment: as above; type: cell-based
Protocol: as §7

| SMILES | Body weight of animals (After a tumor is removed) [1] | Body weight of animals (After a tumor is removed) [2] | Body weight of animals (After a tumor is removed) [3] | IC50 [4] [nM] | IC50 [5] [nM] | IC50 [6] [nM] | IC50 ([7]; 72 h) [nM] | IC50 ([8]; 72 h) [nM] | IC50 ([4]; MTT, Table 2, read-out: IC50 MGC803) [nM] | IC50 ([5]; MTT, Table 2, read-out: IC50 KYSE-150) [nM] | IC50 ([6]; MTT, Table 2, read-out: IC50 SHG44) [nM] | IC50 ([7]; CCK-8, 72 h, Table 1, read-out: IC50 SW1990) [nM] | IC50 ([8]; CCK-8, 72 h, Table 1, read-out: IC50 HCT116) [nM] |
| --- | --- | --- | --- | --- | --- | --- | --- | --- | --- | --- | --- | --- | --- |
| COc1cc(C(=O)NCCOCCOCCOCCOCCC(=O)N[C@@H](C(=O)N[C@@H](CCCNC(N)=O)C(=O)Nc2ccc(COC(=O)N3CCC(NC(=O)O[C@H]4CC[C@]5(C)C6CC[C@]7(C)[C@@H](c8ccc(=O)oc8)CC[C@]7(O)C6CC[C@@H]5C4)CC3)cc2)C(C)C)ccc1NC(=O)[C@@H]1N[C@@H](CC(C)(C)C)[C@](C#N)(c2ccc(Cl)cc2F)[C@H]1c1cccc(Cl)c1F (stereo partly shown) [Compound I-4] | 24.99 ± 1.48 | 26.10 ± 2.00 | 24.95 ± 1.62 | 1670 | 1060 | 319 | 576 | 728 | – | – | – | – | – |
| COc1cc(C(=O)NCCOCCOCCOCCOCCC(=O)N[C@@H](C(=O)N[C@@H](CCCNC(N)=O)C(=O)Nc2ccc(COC(=O)NC3=C(C)C(=O)C4=C(C3=O)[C@@H](COC(N)=O)[C@@]3(OC)[C@H]5N[C@H]5CN43)cc2)C(C)C)ccc1NC(=O)[C@@H]1N[C@@H](CC(C)(C)C)[C@](C#N)(c2ccc(Cl)cc2F)[C@H]1c1cccc(Cl)c1F [Compound I-6] | – | – | – | – | – | – | – | – | > 50000 | 19400 | > 50000 | > 50000 | 542 |
| COc1cc(C(=O)NCCOCCOCCOCCOCCC(=O)NCC(=O)NCC(=O)N[C@@H](Cc2ccccc2)C(=O)NCC(=O)Nc2ccc(COC(=O)N3CCN(C(=O)O[C@H]4CC[C@@]5(C)[C@H](CC[C@@H]6[C@@H]5[C@H](O)C(=O)[C@]5(C)[C@@H](c7ccc(=O)oc7)CC[C@]65O)C4)CC3)cc2)ccc1NC(=O)[C@@H]1N[C@@H](CC(C)(C)C)[C@](C#N)(c2ccc(Cl)cc2F)[C@H]1c1cccc(Cl)c1F [Compound I-16] | – | 25.13 ± 0.97 | – | 402 | 243 | 41 | 22 | 210 | – | – | – | – | – |
| COc1cc(C(=O)NCCOCCOCCOCCOCCC(=O)NCC(=O)NCC(=O)N[C@@H](Cc2ccccc2)C(=O)NCC(=O)Nc2ccc(COC(=O)N3CCC(NC(=O)O[C@H]4CC[C@]5(C)C6CC[C@]7(C)[C@@H](c8ccc(=O)oc8)CC[C@]7(O)C6CC[C@@H]5C4)CC3)cc2)ccc1NC(=O)[C@@H]1N[C@@H](CC(C)(C)C)[C@](C#N)(c2ccc(Cl)cc2F)[C@H]1c1cccc(Cl)c1F (stereo partly shown) [Compound I-17] | – | 25.60 ± 0.98 | – | 1620 | 1890 | 204 | 287 | 898 | – | – | – | – | – |
